Data taken from ChEMBL document CHEMBL1130219, “Structure-activity relationships of 2'-deoxy-2',2'-difluoro-L-erythro-pentofuranosyl nucleosides” (J Med Chem, 1997).

Experiments:
CCRF-CEM = experiment: Compound was evaluated for its toxicity by […] assay in CEM; format: functional, cell-based; conditions: Homo sapiens
Human alphaherpesvirus 1 = experiment: Antiviral activity against Herpes simplex virus type-1; format: functional, organism-based
[1] = Compound was evaluated for its toxicity by […] assay in PBM; format: functional, Homo sapiens
Human alphaherpesvirus 2 = experiment: Antiviral activity against Herpes simplex virus type-2; format: functional, organism-based
Vero = experiment: Compound was evaluated for its toxicity by […] assay in vero cells; format: functional, cell-based; conditions: Chlorocebus sabaeus
Hepatitis B virus = experiment: Antiviral activity against Hepatitis-B virus 2.2.15(HBV); format: functional, organism-based; conditions: HepG2 2.2.15
[2] = Antiviral activity against human immunodeficiency virus type-1 (HIV-1) in PBM cells; format: functional, cell-based; conditions: PBMC

| Structure (SMILES) | IC50 (CCRF-CEM) [µM] | EC50 (Human alphaherpesvirus 1) [µM] | IC50 [1] [µM] | EC50 (Human alphaherpesvirus 2) [µM] | IC50 (Vero) [µM] | EC50 (Hepatitis B virus) [µM] | EC50 [2] [µM] |
| --- | --- | --- | --- | --- | --- | --- | --- |
| O=c1[nH]c(=O)n([C@@H]2O[C@@H](CO)[C@H](O)C2(F)F)cc1F | > 100 | > 100 | > 100 | > 100 | 100 | > 10 | > 100 |
| Nc1nc(=O)n([C@H]2O[C@@H](CO)[C@H](O)C2(F)F)cc1I | > 100 | > 100 | > 100 | > 100 | > 100 | > 10 | > 100 |
| O=c1[nH]c(=O)n([C@H]2O[C@@H](CO)[C@H](O)C2(F)F)cc1F | > 100 | > 100 | > 100 | > 100 | > 100 | > 10 | > 100 |
| Nc1ncnc2c1ncn2[C@H]1O[C@@H](CO)[C@H](O)C1(F)F | > 100 | > 100 | > 100 | > 100 | > 100 | > 20 | 3.4 |
| Cc1cn([C@H]2C[C@H](N=[N+]=[N-])[C@@H](CO)O2)c(=O)[nH]c1=O [ZIDOVUDINE] | 13 | > 100 | > 100 | > 100 | 29 | > 10 | 0.004 |
| Nc1ncnc2c1ncn2[C@@H]1O[C@@H](CO)[C@H](O)C1(F)F | > 100 | > 100 | > 100 | > 100 | > 100 | > 20 | > 100 |
| Nc1nc(=O)n([C@@H]2O[C@@H](CO)[C@H](O)C2(F)F)cc1I | > 100 | > 100 | > 100 | > 100 | > 100 | > 10 | > 100 |
